Measured values from patent publication US5980913A, “Peptides having immunomodulatory activity” (Biochem Pharma, Inc., priority 1994, dated 1999).
Where a SMILES comes first, the peptide text is derived from it. [ ]: non-standard residue; d: D form.

How the values were obtained:
[1] = tested on: blood cell subsets (cell surface antigens); assay: In vivo/ex vivo immunophenotyping in the blood, mice treated 4 consecutive days, blood taken on day 5; design: species or system C57BL/6 mice
Description: C57BL.backslash.6 mice are treated with 0, 50, 100, 200, and 300 mg/kg of drug (in saline) for 4 consecutive days. Blood is taken by cardiac puncture on day 5, and the lymphocytes are isolated from spleen in the following manner:
1. Immunophenotyping (blood and spleen)
Cell immunophenotyping is performed on blood and spleen. The following cell surface antigens are analyzed:
CD4 (T helper/inducer, binds class II-restricted T cells);
CD8 (cytotoxic T cells, CTL adhesion);
MAC-1 (monocyte/macrophage);
NK (natural killer cells);
CD45 (all leukocytes, protein tyrosine phosphatase).

Toxicity in vivo = assay: Toxicity in vivo
Description: peptide #1 (SEQ. ID NO:1) appears to be non-toxic.

P815 target cells = assay: Cytotoxic T lymphocytes (CTL) assay, 51Cr release, after 5 days mixed culture with drug; type: cell-based, C57BL/6 mice; details: 10^-9 M
Description: 1. Cytotoxic T Lymphocytes (CTL) Mixed Lymphocyte Reaction (MLR) and Mitogenic Response Assays
The protocols used are described in Hudson L., Haay F., Pratical immunology, 3rd edition, Blackwell, Scientific publications, Oxford 1989, p. 158-162, and p.447.
Lymphocytes were isolated from C57BL/6 mice and DBA/2 mice in accordance to techniques well known in the art. Cell concentration was adjusted to 10×10^6 cell/ml for each assay. The cells isolated from DBA/2 mice were irradiated with 3000 Rads.
In a 6 well plate, each well was set up with:
The cells were incubated for five days at 37° C. in 5% CO2, after which CTL and MLR assays were performed.
a) Cytotoxic T Lymphocytes (CTL)
P815 target cells were labelled with Cr^51 (0.1 mCi). After labelling, the cells were washed three times and resuspended to a concentration of 5×10^4 cells/ml in media. p T cells were then counted and diluted to obtain a concentration of 2.5×10^6 cells/ml, and then further diluted to obtain the following effector:target ratios:
100 μl of target cells+100 μl of CTLs were incubated for 4 hours. In parallel wells, 100 μl of target cells+100 μl of media were incubated for spntaneous release. After incubation, cells were centrifuged and 100 μl of supernatant was then counted using a gamma counter.
Results are expressed as % specific ^51 Cr release= [formula] where ER=experimental release, SR=spontaneous releaase, and
0 represents less than 20%, + represents 20-40%, ++ represents 40-60%, +++ represent 60-80%, and ++++ represents 80% and over.

NCCCC[C@@H](N)C(=O)N[C@@H](CC(N)=O)C(=O)N1CCC[C@H]1C(=O)N[C@@H](Cc1ccc(O)cc1)C(=O)O [PEPTIDE #5, H-(D-Lys)-Asn-Pro-Tyr-OH] (H-[dK]NPY-OH)
CD4+ CD11b+ cell subset, relative percentage, MEAN ([1]; 100 mg/kg, second assay): 0.50
CD4+ CD11b- cell subset, relative percentage, MEAN ([1]; 100 mg/kg, second assay): 21.58
CD4- CD8+ cell subset, relative percentage, MEAN ([1]; 100 mg/kg, second assay): 6.80
CD4- CD8- cell subset, relative percentage, MEAN ([1]; 100 mg/kg, second assay): 67.83
CD4- CD11b+ cell subset, relative percentage, MEAN ([1]; 100 mg/kg, second assay): 10.28
CD4- CD11b- cell subset, relative percentage, MEAN ([1]; 100 mg/kg, second assay): 67.65
CD45+ CD4+ cell subset, relative percentage, MEAN ([1]; 100 mg/kg, second assay): 22.70
CD45+ CD4- cell subset, relative percentage, MEAN ([1]; 100 mg/kg, second assay): 68.45
CD45+ CD8+ cell subset, relative percentage, MEAN ([1]; 100 mg/kg, second assay): 7.05
CD45+ CD8- cell subset, relative percentage, MEAN ([1]; 100 mg/kg, second assay): 85.00
CD45- CD4+ cell subset, relative percentage, MEAN ([1]; 100 mg/kg, second assay): 2.23
CD45- CD4- cell subset, relative percentage, MEAN ([1]; 100 mg/kg, second assay): 6.63
CD45- CD8+ cell subset, relative percentage, MEAN ([1]; 100 mg/kg, second assay): 0.10
CD45- CD8- cell subset, relative percentage, MEAN ([1]; 100 mg/kg, second assay): 7.83
Ly5(B) cell subset, relative percentage, MEAN ([1]; 100 mg/kg, second assay): 56.10
NK+ CD3+ cell subset, relative percentage, MEAN ([1]; 100 mg/kg, second assay): 4.68
NK+ CD3- cell subset, relative percentage, MEAN ([1]; 100 mg/kg, second assay): 7.58
NK- CD3+ cell subset, relative percentage, MEAN ([1]; 100 mg/kg, second assay): 36.30
NK- CD3- cell subset, relative percentage, MEAN ([1]; 100 mg/kg, second assay): 51.43
TCR(T) cell subset, relative percentage, MEAN ([1]; 100 mg/kg, second assay): 37.50
CD4+ CD8+ cell subset, relative percentage, MEAN ([1]; 200 mg/kg, first assay): 1.90
CD4+ CD8- cell subset, relative percentage, MEAN ([1]; 200 mg/kg, first assay): 19.00
CD4+ CD11b+ cell subset, relative percentage, MEAN ([1]; 200 mg/kg, first assay): 0.85
CD4+ CD11b- cell subset, relative percentage, MEAN ([1]; 200 mg/kg, first assay): 18.98
CD4- CD8+ cell subset, relative percentage, MEAN ([1]; 200 mg/kg, first assay): 4.68
CD4- CD8- cell subset, relative percentage, MEAN ([1]; 200 mg/kg, first assay): 74.40
CD4- CD11b+ cell subset, relative percentage, MEAN ([1]; 200 mg/kg, first assay): 7.78
CD4- CD11b- cell subset, relative percentage, MEAN ([1]; 200 mg/kg, first assay): 72.45
CD45+ CD4+ cell subset, relative percentage, MEAN ([1]; 200 mg/kg, first assay): 17.45
CD45+ CD4- cell subset, relative percentage, MEAN ([1]; 200 mg/kg, first assay): 57.70
CD45+ CD8+ cell subset, relative percentage, MEAN ([1]; 200 mg/kg, first assay): 6.15
CD45+ CD8- cell subset, relative percentage, MEAN ([1]; 200 mg/kg, first assay): 64.30
CD45- CD4+ cell subset, relative percentage, MEAN ([1]; 200 mg/kg, first assay): 3.48
CD45- CD4- cell subset, relative percentage, MEAN ([1]; 200 mg/kg, first assay): 21.35
CD45- CD8- cell subset, relative percentage, MEAN ([1]; 200 mg/kg, first assay): 29.08
CD45- CDE8+ cell subset, relative percentage, MEAN ([1]; 200 mg/kg, first assay): 0.48
Ly5(B) cell subset, relative percentage, MEAN ([1]; 200 mg/kg, first assay): 65.60
NK+ CD3+ cell subset, relative percentage, MEAN ([1]; 200 mg/kg, first assay): 1.93
NK+ CD3- cell subset, relative percentage, MEAN ([1]; 200 mg/kg, first assay): 5.73
NK- CD3+ cell subset, relative percentage, MEAN ([1]; 200 mg/kg, first assay): 33.03
NK- CD3- cell subset, relative percentage, MEAN ([1]; 200 mg/kg, first assay): 59.33
TCR(T) cell subset, relative percentage, MEAN ([1]; 200 mg/kg, first assay): 32.18
CD4+ CD8+ cell subset, relative percentage, MEAN ([1]; 200 mg/kg, second assay): 0.30
CD4+ CD8- cell subset, relative percentage, MEAN ([1]; 200 mg/kg, second assay): 23.13
CD4+ CD11b+ cell subset, relative percentage, MEAN ([1]; 200 mg/kg, second assay): 0.13
CD4+ CD11b- cell subset, relative percentage, MEAN ([1]; 200 mg/kg, second assay): 15.40
CD4- CD8+ cell subset, relative percentage, MEAN ([1]; 200 mg/kg, second assay): 7.58
CD4- CD8- cell subset, relative percentage, MEAN ([1]; 200 mg/kg, second assay): 69.03
CD4- CD11b+ cell subset, relative percentage, MEAN ([1]; 200 mg/kg, second assay): 5.20
CD4- CD11b- cell subset, relative percentage, MEAN ([1]; 200 mg/kg, second assay): 79.30
CD45+ CD4+ cell subset, relative percentage, MEAN ([1]; 200 mg/kg, second assay): 20.85
CD45+ CD4- cell subset, relative percentage, MEAN ([1]; 200 mg/kg, second assay): 71.95
CD45+ CD8+ cell subset, relative percentage, MEAN ([1]; 200 mg/kg, second assay): 7.83
CD45+ CD8- cell subset, relative percentage, MEAN ([1]; 200 mg/kg, second assay): 85.60
CD45- CD4+ cell subset, relative percentage, MEAN ([1]; 200 mg/kg, second assay): 2.23
CD45- CD4- cell subset, relative percentage, MEAN ([1]; 200 mg/kg, second assay): 5.00
CD45- CD8+ cell subset, relative percentage, MEAN ([1]; 200 mg/kg, second assay): 0.05
CD45- CD8- cell subset, relative percentage, MEAN ([1]; 200 mg/kg, second assay): 6.53
Ly5(B) cell subset, relative percentage, MEAN ([1]; 200 mg/kg, second assay): 65.63
NK+ CD3+ cell subset, relative percentage, MEAN ([1]; 200 mg/kg, second assay): 2.90
NK+ CD3- cell subset, relative percentage, MEAN ([1]; 200 mg/kg, second assay): 6.83
NK- CD3+ cell subset, relative percentage, MEAN ([1]; 200 mg/kg, second assay): 32.30
NK- CD3- cell subset, relative percentage, MEAN ([1]; 200 mg/kg, second assay): 58.03
TCR(T) cell subset, relative percentage, MEAN ([1]; 200 mg/kg, second assay): 35.80
CD4- CD8-, figure printed with the significant increase of B cells ([1]; all tested doses): 73%
Ly5, figure printed with the significant increase of B cells ([1]; all tested doses): 80%
change of B cells (in words) ([1]; all tested doses): significant increase
gross pathological observations (in words) (Toxicity in vivo; in vivo): no sign of irritation
toxic effect (in words) (Toxicity in vivo; up to 200 mg/kg): No toxic effect
CTL, % augmentation compared to IL-2 (IL-2 is 100%) (P815 target cells): ++++ (++++ represents 80% and over)
